Counter-ions that a name gives are not always drawn. Like-named read-outs stand apart in the source and are kept apart here.
Experiments:
[1] = Pharmacokinetics study in rats after single or combined intragastric administration; type: in vivo, Sprague-Dawley rats; conditions: plasma, male SD rats
Description: Fifteen male Sprague-Dawley rats (6-8 weeks old, 190-210 g) were purchased from Jinan Pengyue Laboratory Animal Technology Co., Ltd. (Jinan, China). The animal certification number was 3707262011004044 and the production license number was SCXK (Lu) 20190003. Before the formal experiment, all rats were adaptively fed for one week at a temperature of 24 ± 2°C and a humidity of 55 ± 5% and then were randomly divided into three groups. In order to guarantee animal welfare, Animal Experiments Guidelines of Yantai Institute of Materia Medica (Yantai, China) was enforced. Pioglitazone and omarigliptin were suspended into 0.5% carboxymethyl cellulose sodium salt (CMC-Na) for intragastric administration. The dosage for rats was calculated based on the clinical dose. […] About 200 μL whole blood was collected into the heparinized tube at 0 min (pre-dose), 15 min, 30 min, 1 […], and 48 h and centrifugated immediately to collect plasma. All plasma samples were frozen at -20°C until analysis. Samples were processed and analyzed by the validated method. Data were acquired and analyzed by Xcalibur 4.1 software (Thermo Fisher Scientific, Massachusetts, USA). Pharmacokinetic parameters were calculated based on noncompartmental model using Phoenix WinNonlin 7.0 (Pharsight, Mountain View, CA). All data were shown as mean ± SD.

[2] = Stability of QC samples in rat plasma under different storage conditions; type: physicochemical; conditions: n = 5
Description: Different concentrations of working solutions were diluted 20 times with blank rat plasma to prepare corresponding calibration samples. Final concentrations of calibration samples were 5, 25, 50, 100, 250, 500, 1000, and 2000 ng/mL for pioglitazone and 10, 50, 100, 200, 500, 1000, 2000, and 4000 ng/mL for omarigliptin. Quality control (QC) samples (5, 15, 400, 1500 ng/mL for pioglitazone and 10, 30, 800, 3000 ng/mL for omarigliptin) were prepared as the same way. All plasma samples were stored at −20°C until analysis.
QC samples with low, medium, and high concentrations were analyzed under different conditions, such as kept at room temperature for 6 h, frozen and thawed for three cycles, and frozen at −20°C for 7 days. The postextraction samples were stored in autosampler at 10°C for 24 hours and then reinjected to evaluate the autosampler stability. The measured concentrations were calculated according to the following standard curve. RE (%) and RSD (%) should be within ±15%.

[3] = male, Sprague-Dawley, rat, po, 2.6 mg/kg, omarigliptin 2.6 mg/kg in combination with pioglitazone 2.6 mg/kg, intragastric, n = 5
[4] = male, Sprague-Dawley, rat, po, 2.6 mg/kg, omarigliptin 2.6 mg/kg intragastric, single administration, n = 5
[5] = Auto-sampler stability (10°C for 24 h), postextraction samples, nominal 30 ng/mL omarigliptin
[6] = Auto-sampler stability (10°C for 24 h), postextraction samples, nominal 800 ng/mL omarigliptin
[7] = Auto-sampler stability (10°C for 24 h), postextraction samples, nominal 3000 ng/mL omarigliptin
[8] = Freeze (−20°C for 7 days), rat plasma, nominal 30 ng/mL omarigliptin
[9] = Freeze (−20°C for 7 days), rat plasma, nominal 800 ng/mL omarigliptin
[10] = Freeze (−20°C for 7 days), rat plasma, nominal 3000 ng/mL omarigliptin
[11] = Room temperature for 6 h, rat plasma, nominal 30 ng/mL omarigliptin
[12] = Room temperature for 6 h, rat plasma, nominal 800 ng/mL omarigliptin
[13] = Room temperature for 6 h, rat plasma, nominal 3000 ng/mL omarigliptin
[14] = Three freeze-thaw cycles, rat plasma, nominal 30 ng/mL omarigliptin
[15] = Three freeze-thaw cycles, rat plasma, nominal 800 ng/mL omarigliptin
[16] = Three freeze-thaw cycles, rat plasma, nominal 3000 ng/mL omarigliptin
[17] = male, Sprague-Dawley, rat, po, 2.6 mg/kg, pioglitazone 2.6 mg/kg in combination with omarigliptin 2.6 mg/kg, intragastric, n = 5
[18] = male, Sprague-Dawley, rat, po, 2.6 mg/kg, pioglitazone 2.6 mg/kg intragastric, single administration, n = 5
[19] = Auto-sampler stability (10°C for 24 h), postextraction samples, nominal 15 ng/mL pioglitazone
[20] = Auto-sampler stability (10°C for 24 h), postextraction samples, nominal 400 ng/mL pioglitazone
[21] = Auto-sampler stability (10°C for 24 h), postextraction samples, nominal 1500 ng/mL pioglitazone
[22] = Freeze (−20°C for 7 days), rat plasma, nominal 15 ng/mL pioglitazone
[23] = Freeze (−20°C for 7 days), rat plasma, nominal 400 ng/mL pioglitazone
[24] = Room temperature for 6 h, rat plasma, nominal 15 ng/mL pioglitazone
[25] = Room temperature for 6 h, rat plasma, nominal 400 ng/mL pioglitazone
[26] = Room temperature for 6 h, rat plasma, nominal 1500 ng/mL pioglitazone
[27] = Three freeze-thaw cycles, rat plasma, nominal 15 ng/mL pioglitazone
[28] = Three freeze-thaw cycles, rat plasma, nominal 400 ng/mL pioglitazone
[29] = Three freeze-thaw cycles, rat plasma, nominal 1500 ng/mL pioglitazone

Question: Which results are given for `CS(=O)(=O)n1cc2c(n1)CN([C@H]1CO[C@H](c3cc(F)ccc3F)[C@@H](N)C1)C2` [Omarigliptin]?
Answer: AUC(0-inf) [1, 3]: 31300 ± 3820 ng·h/mL; AUC(0-t) [1, 3]: 30400 ± 3760 ng·h/mL; Cmax [1, 3]: 2520 ± 435 ng/mL; Tmax ([1]; male, Sprague-Dawley, rat, po, 2.6 mg/kg, omarigliptin 2.6 mg/kg in combination with pioglitazone 2.6 mg/kg, intragastric, n = 5, read-out: t max): 1.8 ± 0.4 h; AUC(0-inf) [1, 4]: 37700 ± 4100 ng·h/mL; AUC(0-t) [1, 4]: 36600 ± 4060 ng·h/mL; Cmax [1, 4]: 3000 ± 394 ng/mL; Tmax ([1]; male, Sprague-Dawley, rat, po, 2.6 mg/kg, omarigliptin 2.6 mg/kg intragastric, single administration, n = 5, read-out: t max): 1.5 ± 0.7 h; t 1/2 ([1]; omarigliptin 2.6 mg/kg intragastric, single administration, n = 5): 10.9 ± 0.5 h; Accuracy (RE %) [2, 5]: 6.70%; Measured concentrations [2, 5]: 32.01 ± 2.13 ng/mL; Accuracy (RE %) [2, 6]: −4.69%; Measured concentrations [2, 6]: 762.47 ± 4.84 ng/mL; Accuracy (RE %) [2, 7]: −0.09%; Measured concentrations [2, 7]: 2997.38 ± 9.39 ng/mL; Accuracy (RE %) [2, 8]: −4.79%; Measured concentrations [2, 8]: 28.56 ± 0.11 ng/mL; Accuracy (RE %) [2, 9]: 0.28%; Measured concentrations [2, 9]: 802.26 ± 4.01 ng/mL; Accuracy (RE %) [2, 10]: −10.36%; Measured concentrations [2, 10]: 2689.12 ± 45.57 ng/mL; Accuracy (RE %) [2, 11]: 0.05%; Measured concentrations [2, 11]: 30.01 ± 0.40 ng/mL; Accuracy (RE %) [2, 12]: −7.74%; Measured concentrations [2, 12]: 738.06 ± 4.52 ng/mL; Accuracy (RE %) [2, 13]: −2.07%; Measured concentrations [2, 13]: 2937.89 ± 7.68 ng/mL; Accuracy (RE %) [2, 14]: −5.13%; Measured concentrations [2, 14]: 28.46 ± 0.25 ng/mL; Accuracy (RE %) [2, 15]: −0.68%; Measured concentrations [2, 15]: 794.54 ± 9.37 ng/mL; Accuracy (RE %) [2, 16]: −10.98%; Measured concentrations [2, 16]: 2670.56 ± 16.54 ng/mL

Question: What does the source list for `CCc1ccc(CCOc2ccc(CC3SC(=O)NC3=O)cc2)nc1` (stereo not drawn) [Pioglitazone, Pioglitazone hydrochloride]?
Answer: AUC(0-inf) [1, 17]: 19000 ± 2600 ng·h/mL; AUC(0-t) [1, 17]: 19000 ± 2580 ng·h/mL; Cmax [1, 17]: 2460 ± 754 ng/mL; half-life [1, 17]: 2.1 ± 0.2 h; AUC(0-inf) [1, 18]: 17000 ± 2130 ng·h/mL; AUC(0-t) [1, 18]: 16900 ± 2210 ng·h/mL; Cmax [1, 18]: 2550 ± 475 ng/mL; half-life [1, 18]: 2.8 ± 1 h; Tmax ([1]; male, Sprague-Dawley, rat, po, 2.6 mg/kg, pioglitazone 2.6 mg/kg intragastric, single administration, n = 5, read-out: t max): 1.8 ± 0.4 h; Tmax ([1]; pioglitazone 2.6 mg/kg in combination with omarigliptin 2.6 mg/kg, intragastric, n = 5): 2.0 ± 0 h; Accuracy (RE %) [2, 19]: 3.95%; Measured concentrations [2, 19]: 15.59 ± 1.05 ng/mL; Accuracy (RE %) [2, 20]: −9.17%; Measured concentrations [2, 20]: 363.31 ± 1.73 ng/mL; Accuracy (RE %) [2, 21]: −5.24%; Measured concentrations [2, 21]: 1421.47 ± 7.30 ng/mL; Accuracy (RE %) [2, 22]: −8.77%; Measured concentrations [2, 22]: 13.68 ± 0.10 ng/mL; Accuracy (RE %) [2, 23]: 0.24%; Measured concentrations [2, 23]: 400.95 ± 1.64 ng/mL; Measured concentrations ([2]; Freeze (−20°C for 7 days), rat plasma, nominal 1500 ng/mL pioglitazone): 1328.31 ± 5.99 ng/mL; Accuracy (RE %) [2, 24]: −4.62%; Measured concentrations [2, 24]: 14.31 ± 0.34 ng/mL; Accuracy (RE %) [2, 25]: −9.56%; Measured concentrations [2, 25]: 361.75 ± 1.91 ng/mL; Accuracy (RE %) [2, 26]: −5.41%; Measured concentrations [2, 26]: 1418.82 ± 5.26 ng/mL; Accuracy (RE %) [2, 27]: −8.12%; Measured concentrations [2, 27]: 13.78 ± 0.11 ng/mL; Accuracy (RE %) [2, 28]: 0.52%; Measured concentrations [2, 28]: 402.08 ± 1.11 ng/mL; Accuracy (RE %) [2, 29]: −11.10%; Measured concentrations [2, 29]: 1333.57 ± 7.61 ng/mL
